TGI data for 10 compounds are collected here from PubChem BioAssay (NCI).

Among the test systems are MALME-3M melanoma; K-562 leukemia; UACC-257 melanoma; NCI-H522 lung; SNB-75 CNS; IGROV1 ovarian; A549 NSCLC; OVCAR-4 ovarian; A498 renal; SK-MEL-5 melanoma; SW-620 colon; SK-OV-3 ovarian; M14 melanoma; UO-31 renal; HCT-15 colon.
Common to all, as to assay: NCI tumour cell line growth inhibition, 48 h

Molecules are shown by their SMILES.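 In this assay, cells in 96-well plates receive the compound at five concentrations for 48 hours. Endpoints are linearly interpolated between the surrounding concentrations. TGI is the concentration that stops growth completely.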

As for `Cc1csc(=S)n1OC(=O)NC1CCCCC1`, the TGI in the experiment with MALME-3M melanoma is over 100 µM; in the experiment on K-562 leukemia it was over 100 µM; with UACC-257 melanoma, over 100 µM; with NCI-H522 lung it was over 80.9 µM; in the experiment on SNB-75 CNS, over 100 µM; with IGROV1 ovarian, over 100 µM. In addition, the TGI in the experiment with A549 NSCLC is over 100 µM; in the experiment with OVCAR-4 ovarian it was over 32.5 µM; in the experiment with A498 renal it was over 100 µM; in the experiment on SK-MEL-5 melanoma, over 100 µM; in the experiment with SW-620 colon it was over 100 µM; in the experiment with SK-OV-3 ovarian, over 100 µM. The TGI in the experiment with M14 melanoma, in the experiment with UO-31 renal and in the experiment with HCT-15 colon was over 100 µM throughout.
Take `COc1cc(Cn2c3ccccc3c3cc(C)c4c(c32)C=CC(C)(CCC=C(C)C)O4)cc2c1[nH]c1ccccc12` (centres undefined): the TGI with MALME-3M melanoma, in the experiment on K-562 leukemia, in the experiment on UACC-257 melanoma, in the experiment on NCI-H522 lung, in the experiment on SNB-75 CNS and in the experiment on IGROV1 ovarian was over 100 µM each time. The TGI with A549 NSCLC, with OVCAR-4 ovarian, with A498 renal, in the experiment on SK-MEL-5 melanoma, with SW-620 colon and in the experiment with SK-OV-3 ovarian was over 100 µM in each case. Besides, the TGI with M14 melanoma, in the experiment with UO-31 renal and in the experiment with HCT-15 colon was over 100 µM each time.
Regarding `CSc1ccc(C2OC(=O)c3ccccc32)c2ccccc12` (centres undefined), the TGI in the experiment on MALME-3M melanoma was over 100 µM; in the experiment with K-562 leukemia, over 100 µM; with UACC-257 melanoma it was over 100 µM; in the experiment on NCI-H522 lung it was over 100 µM; in the experiment with SNB-75 CNS, 61.2 µM; in the experiment with IGROV1 ovarian it was over 100 µM. Further, the TGI in the experiment on A549 NSCLC, in the experiment on OVCAR-4 ovarian, in the experiment on SK-MEL-5 melanoma, with SW-620 colon, in the experiment with SK-OV-3 ovarian and in the experiment with M14 melanoma was over 100 µM each time. Moreover, the TGI in the experiment on UO-31 renal and in the experiment with HCT-15 colon was over 100 µM throughout.
On to `Cc1[nH]ccc2c1[nH]c1cc(=O)ccc12`, for which the TGI in the experiment with MALME-3M melanoma, in the experiment on K-562 leukemia, in the experiment with UACC-257 melanoma, with SNB-75 CNS, with IGROV1 ovarian and in the experiment on A549 NSCLC was over 100 µM in each case. In addition, the TGI in the experiment on OVCAR-4 ovarian, with A498 renal, in the experiment with SK-MEL-5 melanoma, with SW-620 colon, in the experiment with SK-OV-3 ovarian and with M14 melanoma was over 100 µM throughout. Further, the TGI in the experiment on UO-31 renal and in the experiment on HCT-15 colon was over 100 µM throughout.
Consider `O=C(COc1ccc2c(=O)cc(-c3ccccc3)oc2c1)N1CCN(c2ccccc2)CC1`, for which the TGI in the experiment with MALME-3M melanoma is over 100 µM; in the experiment on K-562 leukemia, over 100 µM; in the experiment on UACC-257 melanoma, over 100 µM; with NCI-H522 lung, 93.8 µM; in the experiment with SNB-75 CNS, over 100 µM; in the experiment with IGROV1 ovarian it was over 100 µM. Besides, the TGI in the experiment on A549 NSCLC, in the experiment with SK-MEL-5 melanoma, in the experiment with SW-620 colon, in the experiment on SK-OV-3 ovarian, with M14 melanoma and in the experiment with UO-31 renal was over 100 µM throughout. In addition, the TGI with HCT-15 colon is over 100 µM.
For `O=C1C(Br)=CC2(C=C1Br)CCNC1=C2C(=O)c2ccccc2C1=O`, the TGI in the experiment with MALME-3M melanoma was 33.8 µM; in the experiment on K-562 leukemia, 48.4 µM; in the experiment on UACC-257 melanoma, 53.3 µM; with NCI-H522 lung it was 14.4 µM; with SNB-75 CNS, over 100 µM; in the experiment with IGROV1 ovarian it was 83.6 µM. The TGI with A549 NSCLC is over 100 µM; in the experiment on SK-MEL-5 melanoma, 28.5 µM; in the experiment on SW-620 colon, 87.8 µM; with SK-OV-3 ovarian it was over 100 µM; with M14 melanoma it was 69.3 µM; in the experiment with HCT-15 colon, 30.3 µM.
As to `Nc1ccn(CCNCCn2cnc3nc(N)[nH]c(=O)c32)c(=O)n1`, the TGI with MALME-3M melanoma, in the experiment on K-562 leukemia, in the experiment on UACC-257 melanoma, in the experiment with NCI-H522 lung, in the experiment with IGROV1 ovarian and with A549 NSCLC was over 100 µM in each case. Moreover, the TGI in the experiment on OVCAR-4 ovarian, in the experiment with A498 renal, in the experiment on SW-620 colon, in the experiment with UO-31 renal and in the experiment with HCT-15 colon was over 100 µM in each case.
`Cn1cnc(CCc2ccccc2)n1`: the TGI in the experiment on MALME-3M melanoma, in the experiment on K-562 leukemia, with UACC-257 melanoma, in the experiment with NCI-H522 lung, with SNB-75 CNS and in the experiment with IGROV1 ovarian was over 100 µM each time. The TGI with A549 NSCLC, with OVCAR-4 ovarian, with A498 renal, in the experiment with SK-MEL-5 melanoma, with SW-620 colon and in the experiment with SK-OV-3 ovarian was over 100 µM in each case. In addition, the TGI with M14 melanoma, with UO-31 renal and in the experiment with HCT-15 colon was over 100 µM each time.
In the case of `COc1ccc(C2=Nc3ccccc3NC(=O)C2)cc1`, the TGI with MALME-3M melanoma is over 100 µM; with K-562 leukemia it was over 100 µM; with UACC-257 melanoma, over 100 µM; in the experiment with NCI-H522 lung it was over 100 µM; with SNB-75 CNS, 57.3 µM; in the experiment on IGROV1 ovarian it was over 100 µM. The TGI with A549 NSCLC was over 100 µM; in the experiment with OVCAR-4 ovarian, over 100 µM; in the experiment with A498 renal, over 100 µM; with SK-MEL-5 melanoma, over 100 µM; with SW-620 colon, 45 µM; in the experiment on SK-OV-3 ovarian, 38.2 µM. Besides, the TGI with M14 melanoma, in the experiment with UO-31 renal and in the experiment on HCT-15 colon was over 100 µM in each case.
In the case of `O=C(CSc1nnc(-c2ccc(N=Cc3ccc(Cl)cc3)cc2)o1)Nc1ccc(Cl)cc1Cl`, the TGI in the experiment with MALME-3M melanoma was 47.5 µM; in the experiment with K-562 leukemia it was over 100 µM; with UACC-257 melanoma, 71.1 µM; in the experiment with NCI-H522 lung it was 85.9 µM; in the experiment on SNB-75 CNS it was 72.7 µM; with IGROV1 ovarian it was 58.7 µM. The TGI was over 100 µM in the experiment on A549 NSCLC; 88 µM in the experiment with OVCAR-4 ovarian; over 100 µM with A498 renal; 63.2 µM with SK-MEL-5 melanoma; over 100 µM in the experiment on SW-620 colon; 76.7 µM in the experiment on SK-OV-3 ovarian. In addition, the results for the TGI in the experiment with M14 melanoma, in the experiment with UO-31 renal and in the experiment on HCT-15 colon were 36.1 µM, 98.7 µM and 52.8 µM, respectively.
